Assay results from PubChem BioAssay (NCI).
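Following 48 hours of exposure in 96-well plates, responses at five concentrations were used to interpolate endpoints linearly. TGI denotes the concentration required for complete inhibition of growth.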

What was measured:
Test in all cases: NCI-60 cell line screen, 48 h
[1] = system: HCT-116 colon
[2] = system: SF-295 CNS
[3] = system: NCI/ADR-RES ovarian
[4] = system: OVCAR-8 ovarian
[5] = system: HT29 colon
[6] = system: SR leukemia
[7] = system: HCC-2998 colon
[8] = system: SF-539 CNS
[9] = system: PC-3 prostate
[10] = system: BT-549 breast
[11] = system: MDA-MB-231 breast
[12] = system: LOX IMVI melanoma
[13] = system: RPMI-8226 leukemia
[14] = system: UO-31 renal
[15] = system: TK-10 renal
[16] = system: EKVX NSCLC
[17] = system: HOP-92 NSCLC
[18] = system: NCI-H23 lung
[19] = system: CAKI-1 renal
[20] = system: UACC-257 melanoma
[21] = system: MALME-3M melanoma
[22] = system: 786-0 renal
[23] = system: ACHN renal
[24] = system: NCI-H226 lung
[25] = system: MDA-MB-435
[26] = system: SW-620 colon
[27] = system: SK-OV-3 ovarian
[28] = system: MOLT-4 leukemia
[29] = system: SK-MEL-28 melanoma
[30] = system: OVCAR-3 ovarian
[31] = system: T-47D breast
[32] = system: MCF7 breast
[33] = system: SNB-19 CNS
[34] = system: A498 renal
[35] = system: MDA-N
[36] = system: M14 melanoma
[37] = system: SK-MEL-2 melanoma
[38] = system: HS 578T breast
[39] = system: SK-MEL-5 melanoma
[40] = system: COLO 205 colon
[41] = system: HL-60(TB) leukemia
[42] = system: HOP-62 NSCLC
[43] = system: HCT-15 colon
[44] = system: IGROV1 ovarian
[45] = system: RXF 393 renal
[46] = system: SF-268 CNS
[47] = system: DU-145 prostate
[48] = system: OVCAR-5 ovarian
[49] = system: SNB-75 CNS
[50] = system: OVCAR-4 ovarian
[51] = system: SN12C renal
[52] = system: NCI-H460 lung
[53] = system: A549 NSCLC
[54] = system: K-562 leukemia
[55] = system: NCI-H522 lung
[56] = system: U251 CNS
[57] = system: CCRF-CEM leukemia
[58] = system: UACC-62 melanoma
[59] = system: KM12 colon

N#CCCN(CCC#N)CCN(CCN(CCC#N)CCC#N)CCN(CCC#N)CCC#N
TGI [1]: > 100 µM
TGI [2]: > 100 µM
TGI [3]: > 100 µM
TGI [4]: > 100 µM
TGI [5]: > 100 µM
TGI [6]: > 100 µM
TGI [7]: > 100 µM
TGI [8]: > 100 µM
TGI [9]: > 100 µM
TGI [10]: > 100 µM
TGI [11]: > 100 µM
TGI [12]: > 100 µM
TGI [13]: > 100 µM
TGI [14]: > 100 µM
TGI [15]: > 100 µM
TGI [16]: > 100 µM
TGI [17]: > 100 µM
TGI [18]: > 100 µM
TGI [19]: > 100 µM
TGI [20]: > 100 µM
TGI [21]: > 100 µM
TGI [22]: > 100 µM
TGI [23]: > 100 µM
TGI [24]: > 100 µM
TGI [25]: > 100 µM
TGI [26]: > 100 µM
TGI [27]: > 100 µM
TGI [28]: > 100 µM
TGI [29]: > 100 µM
TGI [30]: > 100 µM
TGI [31]: > 100 µM
TGI [32]: > 100 µM
TGI [33]: > 100 µM
TGI [34]: > 100 µM
TGI [35]: > 100 µM
TGI [36]: > 100 µM
TGI [37]: > 100 µM
TGI [38]: > 100 µM
TGI [39]: > 100 µM
TGI [40]: > 100 µM
TGI [41]: > 100 µM
TGI [42]: > 100 µM
TGI [43]: > 100 µM
TGI [44]: > 100 µM
TGI [45]: > 100 µM
TGI [46]: > 100 µM
TGI [47]: > 100 µM
TGI [48]: > 100 µM
TGI [49]: > 100 µM
TGI [50]: > 100 µM
TGI [51]: > 100 µM
TGI [52]: > 100 µM
TGI [53]: > 100 µM
TGI [54]: > 100 µM
TGI [55]: > 100 µM
TGI [56]: > 100 µM

Cc1nnc(N)nc1C/C=C/C(Sc1ccc(Cl)cc1)c1ccccc1 (stereo not given)
TGI [1]: > 27.8 µM
TGI [57]: 3.23 µM
TGI [2]: 10.9 µM
TGI [3]: > 34.2 µM
TGI [4]: 34.8 µM
TGI [5]: 25.6 µM
TGI [6]: > 100 µM
TGI [7]: 23.4 µM
TGI [9]: 14.6 µM
TGI [10]: 27.7 µM
TGI [11]: > 33.1 µM
TGI [12]: 7.7 µM
TGI [13]: > 42.9 µM
TGI [14]: 12.4 µM
TGI [15]: 21.9 µM
TGI [16]: 16.1 µM
TGI [17]: 23.7 µM
TGI [18]: 22.2 µM
TGI [19]: > 39.5 µM
TGI [20]: 17 µM
TGI [21]: 14.6 µM
TGI [22]: 11.4 µM
TGI [23]: 18.2 µM
TGI [24]: 4.64 µM
TGI [25]: 14.9 µM
TGI [26]: > 39.7 µM
TGI [27]: 24.4 µM
TGI [28]: > 32 µM
TGI [29]: > 38.1 µM
TGI [58]: 10.1 µM
TGI [31]: > 48.8 µM
TGI [32]: > 34.7 µM
TGI [33]: 22.7 µM
TGI [34]: 23.9 µM
TGI [35]: > 95.9 µM
TGI [36]: 20.7 µM
TGI [37]: 21 µM
TGI [38]: 24.6 µM
TGI [39]: > 100 µM
TGI [40]: > 41.9 µM
TGI [41]: 6.13 µM
TGI [42]: 19.6 µM
TGI [43]: 15.9 µM
TGI [44]: 5.37 µM
TGI [45]: 16.2 µM
TGI [46]: 21.6 µM
TGI [47]: > 45.4 µM
TGI [48]: 23 µM
TGI [49]: 16.5 µM
TGI [50]: 19.6 µM
TGI [51]: > 48.1 µM
TGI [52]: 17.3 µM
TGI [59]: 15.7 µM
TGI [53]: > 64.7 µM
TGI [54]: > 100 µM
TGI [55]: 3.69 µM
TGI [56]: 26.9 µM

COc1cccc2c1-c1ccccc1[C@H](Nc1ccccc1)[C@@]2(C)O
TGI [1]: 15 µM
TGI [57]: 50.9 µM
TGI [2]: 15.8 µM
TGI [3]: 15.2 µM
TGI [4]: 31 µM
TGI [5]: 14 µM
TGI [6]: 22.9 µM
TGI [7]: 19.7 µM
TGI [8]: 11.6 µM
TGI [9]: 19 µM
TGI [10]: 23.3 µM
TGI [11]: 24.3 µM
TGI [12]: 28 µM
TGI [14]: 16.9 µM
TGI [15]: 22.1 µM
TGI [16]: 25.1 µM
TGI [17]: 26 µM
TGI [18]: 23.2 µM
TGI [19]: 17.5 µM
TGI [20]: 19.7 µM
TGI [21]: 22.1 µM
TGI [22]: 20.2 µM
TGI [23]: 21.6 µM
TGI [24]: 15.6 µM
TGI [25]: 6.14 µM
TGI [26]: 30 µM
TGI [27]: 21.3 µM
TGI [28]: > 100 µM
TGI [29]: 26.7 µM
TGI [58]: 21.6 µM
TGI [30]: 7.85 µM
TGI [31]: 30.2 µM
TGI [32]: 17.2 µM
TGI [33]: 19.3 µM
TGI [34]: 22 µM
TGI [35]: 5.25 µM
TGI [36]: 14.8 µM
TGI [37]: 19.9 µM
TGI [38]: 32 µM
TGI [39]: 14.1 µM
TGI [40]: 10.4 µM
TGI [41]: 26.8 µM
TGI [42]: 19 µM
TGI [43]: 18.9 µM
TGI [45]: 11 µM
TGI [46]: 21.1 µM
TGI [47]: 17.7 µM
TGI [48]: 28.2 µM
TGI [49]: 6.85 µM
TGI [50]: 25.7 µM
TGI [51]: 16.8 µM
TGI [52]: 14 µM
TGI [59]: 15.6 µM
TGI [53]: 22.2 µM
TGI [54]: > 100 µM
TGI [55]: 8.49 µM
TGI [56]: 16.3 µM
